Measurements: US10308663B2, “Inhibitors of PTP4A3 for the treatment of cancer” (University of Virginia Patent Foundation, priority 2015, dated 2019)

Tests used:
[1] = tested on: OVCAR-4; experiment: Ovarian cancer cell drug susceptibility (Alamar blue), OVCAR-4; format: cell-based, human; conditions: 44 h + 4 h Alamar blue
[2] = tested on: A2780CW (Cisplatin sensitive); experiment: Ovarian cancer cell drug susceptibility (Alamar blue), A2780CW; format: cell-based, human; conditions: 44 h + 4 h Alamar blue
[3] = tested on: SKOV3; experiment: Ovarian cancer cell drug susceptibility (Alamar blue), SKOV3; format: cell-based, human; conditions: 44 h + 4 h Alamar blue
[4] = tested on: A2780CP20 (Cisplatin resistant); experiment: Ovarian cancer cell drug susceptibility (Alamar blue), A2780CP20; format: cell-based, human; conditions: 44 h + 4 h Alamar blue
[5] = biological target: PTP-Tcell (Homo sapiens (Human), UniProt P17706); conditions: DiFMUP as a substrate; reported by Hoeger et al.; cited from earlier work
[6] = biological target: PTPb cat (Homo sapiens (Human), UniProt P23467); conditions: DiFMUP as a substrate; reported by Hoeger et al.; cited from earlier work
[7] = biological target: PTPaD1 (Homo sapiens (Human), UniProt P18433); conditions: DiFMUP as a substrate; reported by Hoeger et al.; cited from earlier work
[8] = biological target: HCP cat (Homo sapiens (Human), UniProt P29350); conditions: DiFMUP as a substrate; reported by Hoeger et al.; cited from earlier work
[9] = Spontaneous conversion of 5 to 6 under assay conditions; format: physicochemical; conditions: 90 min, in the presence or absence of DTT
[10] = biological target: PTPeD1 (Homo sapiens (Human), UniProt P23469); conditions: DiFMUP as a substrate; reported by Hoeger et al.; cited from earlier work
[11] = biological target: LARD1 (Homo sapiens (Human), UniProt P10586); conditions: DiFMUP as a substrate; reported by Hoeger et al.; cited from earlier work
[12] = biological target: SHP2 cat (Homo sapiens (Human), UniProt Q06124); conditions: DiFMUP as a substrate; reported by Hoeger et al.; cited from earlier work
[13] = biological target: PTP1B (Homo sapiens (Human), UniProt P18031); conditions: DiFMUP as a substrate; reported by Hoeger et al.; cited from earlier work
[14] = biological target: PTPgD1 (Homo sapiens (Human), UniProt P23470); conditions: DiFMUP as a substrate; reported by Hoeger et al.; cited from earlier work
[15] = biological target: CD45 (Homo sapiens (Human), UniProt P08575); conditions: DiFMUP as a substrate; reported by Hoeger et al.; cited from earlier work
[16] = tested on: MsTuWT cells (Ptp4a3 wildtype); experiment: Cell adhesion assay (xCELLigence), MsTuWT; format: cell-based, mouse; conditions: xCELLigence Cell Index

Sequence of PTP-Tcell (P17706 whole entry): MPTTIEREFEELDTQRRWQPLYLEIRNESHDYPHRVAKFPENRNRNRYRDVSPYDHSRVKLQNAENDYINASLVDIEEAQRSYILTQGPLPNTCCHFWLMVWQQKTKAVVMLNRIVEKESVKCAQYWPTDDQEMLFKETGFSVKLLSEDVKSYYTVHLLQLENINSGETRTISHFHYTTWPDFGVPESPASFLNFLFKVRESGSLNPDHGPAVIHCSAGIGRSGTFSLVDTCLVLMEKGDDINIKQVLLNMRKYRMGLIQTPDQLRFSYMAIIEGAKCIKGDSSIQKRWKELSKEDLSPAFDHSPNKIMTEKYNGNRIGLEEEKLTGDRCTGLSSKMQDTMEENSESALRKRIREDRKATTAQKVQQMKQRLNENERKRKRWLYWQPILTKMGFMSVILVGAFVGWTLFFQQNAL
Sequence of PTPb cat (P23467 1703-1963): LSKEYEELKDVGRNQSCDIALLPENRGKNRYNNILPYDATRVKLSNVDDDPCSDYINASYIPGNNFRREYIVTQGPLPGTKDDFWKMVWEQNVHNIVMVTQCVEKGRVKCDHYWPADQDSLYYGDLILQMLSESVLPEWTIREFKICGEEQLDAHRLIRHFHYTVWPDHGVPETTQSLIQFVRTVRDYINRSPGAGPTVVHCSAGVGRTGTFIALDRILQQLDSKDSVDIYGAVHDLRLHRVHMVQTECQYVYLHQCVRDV
Sequence of PTPeD1 (P23469 135-394): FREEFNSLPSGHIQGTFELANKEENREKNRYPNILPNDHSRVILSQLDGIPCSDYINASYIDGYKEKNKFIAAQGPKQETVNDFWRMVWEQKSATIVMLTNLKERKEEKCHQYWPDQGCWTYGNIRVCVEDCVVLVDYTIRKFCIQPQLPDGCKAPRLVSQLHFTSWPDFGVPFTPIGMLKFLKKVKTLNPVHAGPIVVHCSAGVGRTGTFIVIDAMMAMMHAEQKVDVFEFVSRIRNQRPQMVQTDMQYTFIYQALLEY
Sequence of CD45 (P08575 26-1306, species assumed): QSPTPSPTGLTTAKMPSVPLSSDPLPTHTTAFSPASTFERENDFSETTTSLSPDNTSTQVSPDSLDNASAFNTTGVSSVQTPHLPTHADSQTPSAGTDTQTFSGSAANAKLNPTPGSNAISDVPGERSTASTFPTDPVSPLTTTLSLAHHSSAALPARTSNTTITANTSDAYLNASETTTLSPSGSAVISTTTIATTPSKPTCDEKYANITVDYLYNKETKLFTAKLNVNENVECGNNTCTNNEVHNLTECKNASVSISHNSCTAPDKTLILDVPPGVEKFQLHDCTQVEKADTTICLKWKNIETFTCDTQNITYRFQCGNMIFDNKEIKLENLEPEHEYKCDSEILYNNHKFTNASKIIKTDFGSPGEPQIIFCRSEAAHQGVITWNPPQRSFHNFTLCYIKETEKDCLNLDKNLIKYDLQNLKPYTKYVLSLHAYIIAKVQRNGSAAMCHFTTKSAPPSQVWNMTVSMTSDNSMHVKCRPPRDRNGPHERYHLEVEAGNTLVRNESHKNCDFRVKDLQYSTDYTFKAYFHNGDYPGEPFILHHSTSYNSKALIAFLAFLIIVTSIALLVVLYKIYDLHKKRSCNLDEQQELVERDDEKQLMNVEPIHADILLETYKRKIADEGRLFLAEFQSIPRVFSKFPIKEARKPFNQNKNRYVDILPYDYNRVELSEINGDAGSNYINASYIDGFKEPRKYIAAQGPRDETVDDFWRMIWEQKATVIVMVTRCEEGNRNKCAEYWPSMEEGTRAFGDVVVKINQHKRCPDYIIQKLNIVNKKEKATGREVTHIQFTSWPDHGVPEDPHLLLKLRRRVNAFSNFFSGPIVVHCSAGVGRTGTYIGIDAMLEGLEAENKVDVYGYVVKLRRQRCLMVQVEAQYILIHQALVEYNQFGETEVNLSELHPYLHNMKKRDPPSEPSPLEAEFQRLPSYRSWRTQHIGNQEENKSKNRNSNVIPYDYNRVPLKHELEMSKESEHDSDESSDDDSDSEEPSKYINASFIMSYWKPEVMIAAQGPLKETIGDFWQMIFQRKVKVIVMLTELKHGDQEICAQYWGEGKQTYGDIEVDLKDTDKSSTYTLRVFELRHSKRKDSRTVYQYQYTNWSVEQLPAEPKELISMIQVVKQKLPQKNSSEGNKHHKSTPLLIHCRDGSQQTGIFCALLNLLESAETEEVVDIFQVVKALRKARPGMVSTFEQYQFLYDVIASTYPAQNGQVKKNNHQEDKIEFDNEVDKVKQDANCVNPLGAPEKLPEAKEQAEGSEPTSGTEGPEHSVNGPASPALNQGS
Sequence of PTPgD1 (P23470 848-1119): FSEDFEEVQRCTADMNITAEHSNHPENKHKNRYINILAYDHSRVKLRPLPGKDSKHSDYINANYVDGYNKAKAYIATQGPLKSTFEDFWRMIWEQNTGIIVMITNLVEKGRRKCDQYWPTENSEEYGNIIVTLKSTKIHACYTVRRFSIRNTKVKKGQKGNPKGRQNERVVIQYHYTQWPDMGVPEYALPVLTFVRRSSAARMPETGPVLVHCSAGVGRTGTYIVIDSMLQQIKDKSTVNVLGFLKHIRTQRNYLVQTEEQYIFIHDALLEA
Sequence of PTPaD1 (P18433 241-501): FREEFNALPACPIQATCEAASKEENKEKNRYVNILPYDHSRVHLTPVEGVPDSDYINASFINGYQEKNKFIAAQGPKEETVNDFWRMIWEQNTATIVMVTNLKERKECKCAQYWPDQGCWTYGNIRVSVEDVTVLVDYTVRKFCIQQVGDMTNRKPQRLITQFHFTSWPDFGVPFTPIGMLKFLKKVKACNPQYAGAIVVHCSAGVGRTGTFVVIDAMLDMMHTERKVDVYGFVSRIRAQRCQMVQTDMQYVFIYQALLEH
Sequence of HCP cat (P29350 244-515): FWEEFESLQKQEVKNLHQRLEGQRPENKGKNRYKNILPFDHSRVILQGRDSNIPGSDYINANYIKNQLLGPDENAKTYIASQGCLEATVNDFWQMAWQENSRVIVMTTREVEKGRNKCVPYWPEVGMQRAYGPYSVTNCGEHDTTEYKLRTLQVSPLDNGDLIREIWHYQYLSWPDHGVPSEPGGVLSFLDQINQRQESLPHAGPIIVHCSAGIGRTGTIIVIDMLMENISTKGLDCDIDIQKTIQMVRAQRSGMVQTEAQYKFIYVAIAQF
Sequence of PTP1B (P18031 whole entry, species assumed): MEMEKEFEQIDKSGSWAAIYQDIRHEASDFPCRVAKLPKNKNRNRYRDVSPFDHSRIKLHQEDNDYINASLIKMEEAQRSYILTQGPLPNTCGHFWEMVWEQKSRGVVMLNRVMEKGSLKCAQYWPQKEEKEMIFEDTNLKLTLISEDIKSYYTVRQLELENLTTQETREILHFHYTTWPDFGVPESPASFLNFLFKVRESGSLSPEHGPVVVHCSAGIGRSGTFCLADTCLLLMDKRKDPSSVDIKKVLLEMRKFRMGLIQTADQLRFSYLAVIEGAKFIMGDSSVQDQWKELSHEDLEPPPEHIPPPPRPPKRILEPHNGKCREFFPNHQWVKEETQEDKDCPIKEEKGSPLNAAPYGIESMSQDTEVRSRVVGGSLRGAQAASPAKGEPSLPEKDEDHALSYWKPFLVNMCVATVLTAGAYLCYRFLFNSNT
Sequence of LARD1 (P10586 1352-1607): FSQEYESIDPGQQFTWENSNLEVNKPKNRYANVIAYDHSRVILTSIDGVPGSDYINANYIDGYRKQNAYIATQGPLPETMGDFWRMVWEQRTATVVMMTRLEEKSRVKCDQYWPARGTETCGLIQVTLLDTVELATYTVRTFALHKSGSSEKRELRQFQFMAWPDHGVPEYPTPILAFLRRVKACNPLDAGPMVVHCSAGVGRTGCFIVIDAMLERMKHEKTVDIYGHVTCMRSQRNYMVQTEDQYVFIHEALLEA
Sequence of SHP2 cat (Q06124 247-517): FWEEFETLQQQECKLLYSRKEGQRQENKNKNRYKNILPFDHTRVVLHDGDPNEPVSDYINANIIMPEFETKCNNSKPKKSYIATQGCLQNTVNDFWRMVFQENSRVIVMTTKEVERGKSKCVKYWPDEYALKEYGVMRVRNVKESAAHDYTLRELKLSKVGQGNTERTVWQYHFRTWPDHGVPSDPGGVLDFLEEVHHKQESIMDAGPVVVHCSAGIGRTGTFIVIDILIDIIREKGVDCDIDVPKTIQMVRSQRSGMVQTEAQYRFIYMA

| SMILES | EC50 ([1]; Homo sapiens, OVCAR-4) [µM] | EC50 ([2]; Homo sapiens) [µM] | EC50 ([3]; Homo sapiens, SK-OV-3) [µM] | EC50 ([4]; Homo sapiens) [µM] | EC50 [1] [µM] | EC50 [2] [µM] | EC50 [3] [µM] | EC50 [4] [µM] | IC50 [5] [µM] | IC50 [6] [µM] | IC50 [7] [µM] | IC50 [8] [µM] | spontaneous conversion of 5 to 6 [9] | IC50 [10] [µM] | IC50 [11] [µM] | IC50 [12] [µM] | IC50 [13] [µM] | IC50 [14] [µM] | IC50 [15] [µM] | MsTuWT adherence [16] |
| --- | --- | --- | --- | --- | --- | --- | --- | --- | --- | --- | --- | --- | --- | --- | --- | --- | --- | --- | --- | --- |
| O=C1NC(=S)S/C1=C/c1cc(Br)ccc1OCc1ccccc1Br [BR-1] | 48.5 ± 7.9 | 26.4 ± 1 | 48.3 ± 9.1 | 17.3 ± 2 |  |  |  |  |  |  |  |  |  |  |  |  |  |  |  |  |
| N.N.[Cl][Pt][Cl] [Cisplatin] |  |  |  |  | 30.3 ± 4.4 | 3.7 ± 1.8 | > 100 | > 100 |  |  |  |  |  |  |  |  |  |  |  |  |
| O=c1[nH]c(=O)c2cc(-c3ccccc3)sc2[nH]1 [JMS-557-038] | > 50 | > 50 | > 50 | > 50 |  |  |  |  |  |  |  |  |  |  |  |  |  |  |  |  |
| Nc1c[nH]c(=O)c2cc(-c3ccccc3)sc12 [Thienopyridone (5), 7-amino-2-phenylthieno[3,2-c]pyridin-4(5H)-one] | 15.5 ± 2.4 | 4.5 ± 0.6 | 28.8 ± 2.2 | 13.1 ± 6 |  |  |  |  | > 100 | 67 | > 100 | 71 | not detect quantifiable (>5%) spontaneous conversion | > 100 | > 100 | > 100 | > 100 | > 100 | > 100 | inhibited |
